In patent US20020165233A1, “Quinoxaline containing medicaments for post exposure prophylaxis of an HIV infection” (priority 1999, published 2002):
“Also recorded” adds a separate entry of the source.

Key:
RT-SHIV [1] = test: Inhibitory activity on RT-SHIV replication in Herpes Saimiri Virus transformed monkey CD4+ T cells (P27 SIV gag antigen); assay type: cell-based, chimeric simian-human immunodeficiency virus (SHIV)
Method: The virus used in the experiments is a chimeric simian-human immunodeficiency virus (SHIV) that consists of SIVmac239 virus genome with replacement of reverse transcriptase gene (RT) by the corresponding HIV-1 RT gene (Ueberla, K. et al (1995), Medical Sciences 92, […]). RT-SHIV induced AIDS in experimentally infected rhesus monkeys (Ueberla, loc.cit.). Proviral RT-SHIV DNA was prepared by ligation of RT-SHIV5′ and 3′ half of SIVmac239. COS-1 virus stocks were prepared by DNA transfection of proviral DNA. Virus stocks for efficacy experiments were prepared by propagation of COS-1 virus stock in rhesus monkey peripheral blood lymphocytes (PBL). P27 antigen concentration of the virus stocks was determined with a commercial SIV gag antigen ELISA kit (Coulter). The 50% T cell infective dose (TCID50) of the stocks was determined with Herpes Simiri Virus transformed cynomolgus CD4^+ T cells (cyT/HSV).
Inhibitory Activity of COMPOUND A on RT-SHIV Replication in Herpes Saimiri Virus Transformed Monkey CD4^+ T Cells:
3×10^6 of CyT/HSV cells were infected with RT-SHIV stocks containing 10000 TCID50 for 2 h at 37° C., then washed and resuspended in the medium containing serially diluted COMPOUND A (0, 0.1, 0.3, 1, 3, 10, 30, 100, 300, 1000 nM). […] Virus growth was monitored by measuring of P27 SIV gag antigen in culture supernatant with a commercial kit.

RT-SHIV [2] = test: RT-SHIV proviral DNA in PBMC and LNMC (quantitative PCR); assay type: in vivo, rhesus monkeys; details: for RT-SHIV proviral DNA in LNMC: 8 w p.e.
Method: (§1) Nine rhesus monkeys (male, 2 years old, 2-3 kg) were seronegative for SIV, Simian T cell Leukemia Virus (STLV), B virus and Type D retroviruses. 15 mg/kg body weight of COMPOUND A was subcutaneously administered into animals twice a day (12 h interval) for 28 d. Animals were divided into three groups. All animals were intravenously administered with 100 TCID50 of RT-SHIV The first group consisted of three animals treated with COMPOUND A from 8 h post exposure for 28 d. The second group of animals was treated with COMPOUND A from 24 h post exposure for 28 d. The third group (control) received the solvent that was used to dissolve COMPOUND A (PEG400:glycerol:water=[…]) from 8 h post exposure for 28 d.
(§2) Blood was collected from all the animals either just before or 2 h after the drug administration on 0, 3, 7, 10, 14, 21, 29 d post exposure in order to check the drug concentration, otherwise in intervals of 2 to 8 weeks. Biopsy of inguinal lymph nodes was conducted on 17 d or 18 d and 8 weeks post exposure in two animals per group. Cerebrospinal fluid (CSF) was collected from the animals just before biopsy.
T-SHIV DNA Amount in Peripheral Blood Mononuclear Cells (PBMC) and Lymph Node Cells (LNC):
PBMC were separated by Ficoll-Hypaque gradient centrifugation. Cellular DNA was purified from 1×10^6 cells with a commercial DNA purification kit (Qiagen). Gag sequence of viral DNA was PCR amplified with the primers SG05i and SG06i. Nested PCR amplification with two sets of primers, i.e. F34C (nt. 9065 to 9082)(5′-CCTACCTACAATATGGGT-3′) and F35C (nt. 9800 to 9778)(5′-[…]-3′), the second primers: N3 (nt. 9182 to 9201)(5′-GMGATGGATACTCGCAATC-3′) and N4, (nt. 9552 to 9533)(5′-TMTCCTGCCAATCTGGTAT-3′) was performed to detect one copy per 100,000 cells. Detection and quantitative determination of the viral DNA copy number was conducted as described for plasma viral load. The cell numbers of PBMC and LNC were estimated by imaging analysis of cyber green-stained chromosomal DNA separated by agarose gel electrophoresis.
The detection limit was 1 copy DNA per 100,000 cells. In contrast to the untreated animals, the proviral DNA levels were very low in the treated groups.

RT-SHIV [3] = test: Plasma viral load (quantitative RNA PCR) after post-exposure prophylaxis; assay type: in vivo, rhesus monkeys
Method: as §1, §2
Determination of Plasma Viral Load:
Viral RNA was purified from plasma with a commercial viral RNA isolation kit (Boehringer Mannheim). Gag cDNA was PCR amplified with a commercial RNA PCR kit (Boehringer Mannheim) with the gag primers SG05i (5′-ACTGCTGATTCAAAATGCiMCC-3′), SG06i (5′-CTACTGGTCTiCTCCAAAGAGAGAATTG-3′) according to the protocol by Piatak et al. (Biotechniques 14, 70-81-1993) with modifications. Amplified gag DNA was separated by 2% agarose electrophoresis and cyber green stained DNA was analyzed with a fluorescence image analyzer (FLA2000, Fuji Photo Film). Quantitative determination of the viral RNA copy number was calculated using external standards.

SMILES: CC[C@H]1C(=O)Nc2ccc(F)cc2N1C(=O)OC(C)C [Compound A, (3S)-ethyl-6-fluoro-4-isopropyloxycarbonyl-3,4-dihydroquinoxalin-2(1H)-one]
- suppression of RT-SHIV replication (RT-SHIV [1]; 10 nM COMPOUND A, Herpes Saimiri Virus transformed monkey CD4+ cells): more than 95%
- IC90 (RT-SHIV [1]; Simian-Human immunodeficiency virus, CD4+ T, in Primates, read-out: IC90 value (RT-SHIV replication)): 8 nM
- RT-SHIV proviral DNA in PBMC (RT-SHIV [2]; animal #1, treated 8h thru 28 dpi, 2 w p.e.): 0 viral DNA copies/100,000 cells
- RT-SHIV proviral DNA in PBMC (RT-SHIV [2]; animal #1, treated 8h thru 28 dpi, 4 w p.e.): 0 viral DNA copies/100,000 cells
- RT-SHIV proviral DNA in PBMC (RT-SHIV [2]; animal #1, treated 8h thru 28 dpi, 15 w p.e.): 1 viral DNA copies/100,000 cells
- RT-SHIV proviral DNA in PBMC (RT-SHIV [2]; animal #1, treated 8h thru 28 dpi, 40 w p.e.): 0 viral DNA copies/100,000 cells
- RT-SHIV proviral DNA in PBMC (RT-SHIV [2]; animal #1, treated 8h thru 28 dpi, 50 w p.e.): 0 viral DNA copies/100,000 cells
- RT-SHIV proviral DNA in PBMC (RT-SHIV [2]; animal #3, treated 24 h thru 28 d pi, 2 w p.e.): 0 viral DNA copies/100,000 cells
- RT-SHIV proviral DNA in PBMC (RT-SHIV [2]; animal #3, treated 24 h thru 28 d pi, 4 w p.e.): 0 viral DNA copies/100,000 cells
- RT-SHIV proviral DNA in PBMC (RT-SHIV [2]; animal #3, treated 24 h thru 28 d pi, 15 w p.e.): 16 viral DNA copies/100,000 cells
- RT-SHIV proviral DNA in PBMC (RT-SHIV [2]; animal #3, treated 24 h thru 28 d pi, 40 w p.e.): 0 viral DNA copies/100,000 cells
- RT-SHIV proviral DNA in PBMC (RT-SHIV [2]; animal #3, treated 24 h thru 28 d pi, 50 w p.e.): 2 viral DNA copies/100,000 cells
- RT-SHIV proviral DNA in PBMC (RT-SHIV [2]; animal #4, treated 24 h thru 28 d pi, 2 w p.e.): 0 viral DNA copies/100,000 cells
- RT-SHIV proviral DNA in PBMC (RT-SHIV [2]; animal #4, treated 24 h thru 28 d pi, 4 w p.e.): 0 viral DNA copies/100,000 cells
- RT-SHIV proviral DNA in LNMC (RT-SHIV [2]; animal #4, treated 24 h thru 28 d pi): 1 viral DNA copies/100,000 cells
- RT-SHIV proviral DNA in PBMC (RT-SHIV [2]; animal #4, treated 24 h thru 28 d pi, 15 w p.e.): 0 viral DNA copies/100,000 cells
- RT-SHIV proviral DNA in PBMC (RT-SHIV [2]; animal #4, treated 24 h thru 28 d pi, 40 w p.e.): 0 viral DNA copies/100,000 cells
- RT-SHIV proviral DNA in PBMC (RT-SHIV [2]; animal #4, treated 24 h thru 28 d pi, 50 w p.e.): 0 viral DNA copies/100,000 cells
- RT-SHIV proviral DNA in PBMC (RT-SHIV [2]; animal #5, treated 8h thru 28 dpi, 2 w p.e.): 0 viral DNA copies/100,000 cells
- RT-SHIV proviral DNA in PBMC (RT-SHIV [2]; animal #5, treated 8h thru 28 dpi, 4 w p.e.): 0 viral DNA copies/100,000 cells
- RT-SHIV proviral DNA in LNMC (RT-SHIV [2]; animal #5, treated 8h thru 28 dpi): 2 viral DNA copies/100,000 cells
- RT-SHIV proviral DNA in PBMC (RT-SHIV [2]; animal #5, treated 8h thru 28 dpi, 15 w p.e.): 0 viral DNA copies/100,000 cells
- RT-SHIV proviral DNA in PBMC (RT-SHIV [2]; animal #5, treated 8h thru 28 dpi, 40 w p.e.): 0 viral DNA copies/100,000 cells
- RT-SHIV proviral DNA in PBMC (RT-SHIV [2]; animal #5, treated 8h thru 28 dpi, 50 w p.e.): 0 viral DNA copies/100,000 cells
- RT-SHIV proviral DNA in PBMC (RT-SHIV [2]; animal #10, treated 8h thru 28 dpi, 2 w p.e.): 0 viral DNA copies/100,000 cells
- RT-SHIV proviral DNA in PBMC (RT-SHIV [2]; animal #10, treated 8h thru 28 dpi, 4 w p.e.): 0 viral DNA copies/100,000 cells
- RT-SHIV proviral DNA in PBMC (RT-SHIV [2]; animal #10, treated 8h thru 28 dpi, 15 w p.e.): 7 viral DNA copies/100,000 cells
- RT-SHIV proviral DNA in PBMC (RT-SHIV [2]; animal #10, treated 8h thru 28 dpi, 40 w p.e.): 1 viral DNA copies/100,000 cells
- RT-SHIV proviral DNA in PBMC (RT-SHIV [2]; animal #10, treated 8h thru 28 dpi, 50 w p.e.): 5 viral DNA copies/100,000 cells
- RT-SHIV proviral DNA in PBMC (RT-SHIV [2]; animal #11, treated 24 h thru 28 d pi, 2 w p.e.): 0 viral DNA copies/100,000 cells
- RT-SHIV proviral DNA in PBMC (RT-SHIV [2]; animal #11, treated 24 h thru 28 d pi, 4 w p.e.): 0 viral DNA copies/100,000 cells
- RT-SHIV proviral DNA in PBMC (RT-SHIV [2]; animal #11, treated 24 h thru 28 d pi, 15 w p.e.): 1 viral DNA copies/100,000 cells
- RT-SHIV proviral DNA in PBMC (RT-SHIV [2]; animal #11, treated 24 h thru 28 d pi, 40 w p.e.): 0 viral DNA copies/100,000 cells
- RT-SHIV proviral DNA in PBMC (RT-SHIV [2]; animal #11, treated 24 h thru 28 d pi, 50 w p.e.): 0 viral DNA copies/100,000 cells
- proviral DNA levels (persistent infection) in treated groups relative to untreated (RT-SHIV [2]; treated groups versus untreated animals): very low; also recorded: far lower level of persistent infection
- animals with a short active viral replication (RT-SHIV [3]; 4 weeks after cessation of treatment): 50 % of the animals
- viral replication (plasma viral RNA, proviral DNA, infectious cells in PBMC) (RT-SHIV [3]; during the treatment and the following 3 weeks, all treated animals): inhibited at a level below the sensitivity of the assays
- viral infection in animal #5 (RT-SHIV [3]; plasma viral RNA, proviral DNA and QVI methods): no viral infection was observed
- duration of immune-system assisted control following exposure (RT-SHIV [3]; rhesus macaques): at least 40 weeks
- viral replication (plasma viral RNA level) (RT-SHIV [3]; subsequent to active replication around 10 weeks, up to 40 weeks post exposure, RNA PCR detection level): ≤ 1000 copy/ml
